Earlier results, collected in patent US20260355312A1, “COMBINED THERAPY DRUG COMPRISING ANTI-HER2 BISPECIFIC ANTIBODY AND USE THEREOF” (JIANGSU ALPHAMAB BIOPHARMACEUTICALS CO., LTD., priority 2023, published 2026).

Test system: tumor

In the case of `CC(=O)O[C@@]12CO[C@@H]1C[C@H](O)[C@@]1(C)C(=O)[C@H](O)C3=C(C)[C@@H](OC(=O)[C@H](O)[C@@H](NC(=O)OC(C)(C)C)c4ccccc4)C[C@@](O)([C@@H](OC(=O)c4ccccc4)[C@H]21)C3(C)C` [Docetaxel, docetaxel], the “antitumor activity compared to paclitaxel” value is given as “stronger antitumor activity than paclitaxel”.
